{
  "source": "patent US4567201A",
  "about": "“Diphenoxypropane derivatives and compositions of antiasthmatic and antiinflammatory agents thereof” (Takeda Chemical Industries, Ltd., priority 1981, dated 1986)",
  "key": {"[1]": {"test_system": "leukotriene D4 (LTD4)-induced contraction of the guinea pig ileum", "test": "Anti-SRS-A activity: inhibition of LTD4-induced contraction of guinea pig ileum", "details": "50% inhibition of LTD4-induced contraction (60-70% of maximum contraction), drug added 1 minute before LTD4", "text": "The present inventors studied the antagonistic action of compound (I)-A against SRS-A using a synthetic LTD4 in the following manner.\nThe inhibitory effect of the drug on the contractile response (60-70% of maximum contraction) of the ileum of guinea pig (body weight 300-350 g, female and male) to leukotriene D4 (LTD4) was investigated. In Tyrode solution containing atropine (10^-7 M) and mepyramine (10^-6 M), 3×10^-10 or 10^-9 M of LTD4 was repeatedly permitted to act on the guinea pig ileum and after the amplitude of contraction had become constant, a solution of the test drug was added to a final concentration of 10^-9 to 10^-4 M. After 1 minute, the same concentration of LTD4 was further added and the anti-SRS-A activity of the drug was calculated from the change in contraction amplitude by means of the following equation. [formula]\nTo obtain the IC50 value, the mole concentration of the drug showing a 50% inhibition of the contractile response was determined from plots on a graph.\nThe drug was used as dissolved in dimethyl sulfoxide. The solvent was used in an amount less than 1% which would not exert any influence on the ileum."}, "[2]": {"test_system": "bronchoconstriction due to leukotriene D4 (LTD4)", "test": "Inhibition of bronchoconstriction due to intravenous LTD4 in guinea pigs (Konzett-Rossler)", "format": "in vivo, guinea pig (Hartley strain)", "details": "for Percent increase of overflow: 2 minutes before LTD4 10 μg/kg i.v., Mean±S.E.; for Percent inhibition: 2 minutes before LTD4 (Table 2)", "method": "Guinea pigs of Hartley strain, both male and female, with body weights about 400 g were assigned to groups of 6 individuals, and the bronchoconstriction due to LTD4 were measured according to the method of Konzett-Rossler, [Konzett, H. and Rossler, R.: Naunyn-Schmiedebergs Archiv Fur Experimentelle Pathologie und Pharmakologie 195, 71-74 (1940)]. Each guinea pig was fixed in supine position under urethane anesthesia (1.5 g/kg, intraperitoneal) and the trachea was incised and connected to an artificial respiration apparatus, Rodent Respirator Model 680 [Harvard Apparatus Company, U.S.A.] via a cannula. The branch tube of this tracheal cannula was connected to Bronchospasm Transducer Model 7020 [Ugobasil Biological Research Apparatus, Italy]. Under the conditions of 5 to 7 ml of air per stroke, 70 strokes per minute and a lung loading pressure of 10 cmH2 O, the volume of overflowing air was recorded on Rectigraph-8S (Sanei Sokki Ltd., Japan) via a transducer. After administration of gallamine triethiodide (1 mg/kg, i.v.), 10 μ g/kg of histamine.2HCl was intravenously administered to investigate the response of the animal. Then, a solution of LTD4 in physiological saline (10 μg/kg) was intravenously administered and the bronchoconstriction elicited thereby was recorded for 15 minutes. Two minutes before LTD4 loading, compound (I)-A-1 was intravenously administered in a volume of 0.1 ml per 100 g body weight. Compound (I)-A-1 and LTD4 were administered through a cannula inserted into the jugular vein.\nThe compound (I)-A-1 was used as dissolved in physiological saline containing sodium hydrogen carbonate, and LTD4 was taken from a stock stored in methanol (1 mg/1 ml methanol) at -70° C.\nThe bronchoconstriction induced by intravenous administration of 10 μg/kg of LTD4 as given 2 minutes after the administration of physiological saline was maximal at the time of 30 seconds after the administration of LTD4 and, since then, was rapidly attenuated to about 50% at the time of 2 minutes but lasted till 15 minutes. Assuming that the response at complete obstruction is 100%, the values at 30 seconds and 15 minutes were 47.4±6.9% (n=6, Mean±S.E.) and 19.4±2.8% (Mean±S.E.), respectively (S.E.: standard error).\nThen the present inventors studied the antagonistic action of the compound (I)-B against SRS-A using a synthetic LTD4 in the manner described on the compound (I)-A.\nIn each case, the bronchoconstriction following intravenous administration of 10 μg/kg of LTD4 at 2 or 30 minutes after the administration of physiological saline reached a maximum 30 seconds after the administration of LTD4, and then decreased to about 50% at 2 minutes after the administration of LTD4. The response continued for 15 minutes after the administration of LTD4. Repeated experiments using 6 animals per group gave mean degrees of maximum bronchoconstriction (30-second values) of 52.2-67.1% and 54.7-70.1%, respectively, as compared with the state of complete obstruction (100%). In experiment 1, the test compounds (I)-B-1, (I)-B-2 and Control compound-1 were each intravenously administered at two minutes before the administration of LTD4 and inhibitory effect on the bronchoconstriction was examined. The minimum effective doses (causing statistically significant differences as compared with the control group; significance level <5%) were 0.313, 0.313 and 5 mg/kg, respectively. The corresponding inhibition percentages were 41, 52 and 56%, respectively. In experiment 2, the test compounds were intravenously administered 30 minutes before the administration of LTD4 and the effect on the above response was examined. The minimum effective doses were 5, 5, and 20 mg/kg, respectively.\nThe test compounds were intravenously administered 2 minutes before the\nintravenous administration of 10 μg/kg of LTD4.\nThe test compounds were intravenously administered 30 minutes before the\nEach value was calculated from the volume (in percentage) of air […]"}, "Carrageenin edema": {"test_system": "Carrageenin edema", "test": "Carrageenin edema in rats", "format": "in vivo, rat", "details": "for Percent inhibition: carrageenin edema; for Mean volume of edematous swelling ±S.E.: in ml (unit assumed)", "method": "The volume of the right hind paw of each rat was measured and the test compound suspended in 4% gum arabic solution was orally administered in an amount of 1 ml/100 g body weight. Immediately thereafter, a further amount of water was given to make the total dosing volume 5 ml. After 1 hour, 0.05 ml of a 1% suspension of carageenin in physiological saline was subcutaneously injected into the foot pad. Three hours after the carrageenin injection, the volume of the paw was measured again and the volume of the edema was calculated as a difference between this measured volume of the paw and the volume before the injection.\nIn the case of intravenous administration, a solution of the test compound in an aqueous solution of NaHCO3 was intravenously administered in an amount of 2.0 ml/100 g body weight and 5 ml of water per animal was orally administered. Then, carrageenin was injected subcutaneously to produce edema."}, "Acute toxicity in mice": {"test": "Acute toxicity in mice", "format": "in vivo, mouse (Jcl:ICR strain)", "details": "500 mg/kg oral", "method": "Five 5-week-old male mice of Jcl:ICR strain, weighing 26.0 to 30.5 g, were used. Compound (I)-A-1 was suspended in a 5% solution of gum arabic and administered orally by gastric gavage at the level of 0.2 ml per 10 grams body weight.\nFive 5-week-old male mice of Jcl:ICR strain, weighing 26.0 to 30.5 g, were used. Compound (I)-B-1 or (I)-B-2 was suspended in a 5% solution of gum arabic and administered orally by gastric gavage at the level of 0.2 ml per 10 grams body weight."}},
  "note": "pIC50: −log10 of the molar value.",
  "data": [
    {"molecule": "CCCc1c(OCC(O)COc2ccc(-c3nn[nH]n3)cc2Cl)ccc(C(C)=O)c1O", "note": "(centres unmarked) [Compound (I)-A-1, 4-[3-[4-(tetrazol-5-yl)-2-chlorophenoxy]-2-hydroxypropoxy]-2-hydroxy-3-propylacetophenone]", "values": [
      {"measurement": "pIC50", "setting": "[1]", "value": 8.39},
      {"measurement": "Percent increase of overflow", "setting": "[2]; 0.08 mg/kg i.v., 8 animals", "value": "29.1 ± 7.5", "unit": "%"},
      {"measurement": "Percent inhibition", "setting": "[2]; 0.08 mg/kg i.v.", "value": 39, "unit": "%"},
      {"measurement": "Percent increase of overflow", "setting": "[2]; 0.313 mg/kg i.v., 6 animals", "value": "28.1 ± 7.1", "unit": "%"},
      {"measurement": "Percent inhibition", "setting": "[2]; 0.313 mg/kg i.v.", "value": 41, "unit": "%"},
      {"measurement": "Percent increase of overflow", "setting": "[2]; 1.25 mg/kg i.v., 6 animals, *p<0.05 vs physiological saline control", "value": "23.4 ± 8.0", "unit": "%"},
      {"measurement": "Percent inhibition", "setting": "[2]; 1.25 mg/kg i.v.", "value": 51, "unit": "%"},
      {"measurement": "inhibition of LTD4 bronchoconstriction (in words)", "setting": "[2]; 5 mg/kg i.v., 2 minutes before LTD4", "value": "substantially complete inhibition"},
      {"measurement": "Percent increase of overflow", "setting": "[2]; 5 mg/kg i.v., 6 animals, ***p<0.001 vs physiological saline control", "value": "3.3 ± 2.1", "unit": "%"},
      {"measurement": "Percent inhibition", "setting": "[2]; 5 mg/kg i.v.", "value": 93, "unit": "%"},
      {"measurement": "inhibitory effect against LTD4 bronchoconstriction (in words)", "setting": "[2]; intravenously administered 2 minutes before LTD4 dosing", "value": "remarkable inhibitory effect"},
      {"measurement": "Percent inhibition", "setting": "Carrageenin edema; 1 mg/kg i.v.", "value": 19.2, "unit": "%"},
      {"measurement": "Mean volume of edematous swelling ±S.E.", "setting": "Carrageenin edema; 1 mg/kg i.v.", "value": "0.442 ± 0.044"},
      {"measurement": "Percent inhibition", "setting": "Carrageenin edema; 10 mg/kg i.v.", "value": 25.0, "unit": "%"},
      {"measurement": "Mean volume of edematous swelling ±S.E.", "setting": "Carrageenin edema; 10 mg/kg i.v., *p<0.05", "value": "0.410 ± 0.046"},
      {"measurement": "Mean volume of edematous swelling ±S.E.", "setting": "Carrageenin edema; 50 mg/kg p.o., 3 hours after carrageenin, *p<0.05", "value": "0.487 ± 0.023"},
      {"measurement": "Percent inhibition", "setting": "Carrageenin edema; 50 mg/kg p.o.", "value": 15.0, "unit": "%"},
      {"measurement": "antiinflammatory activity (in words)", "setting": "Carrageenin edema; rat, in vivo", "value": "has an antiinflammatory activity"},
      {"measurement": "Autopsy findings", "setting": "Acute toxicity in mice; after 1 week", "value": "did not reveal any abnormalities"},
      {"measurement": "symptoms attributable to compound after oral administration", "setting": "Acute toxicity in mice; male mice", "value": "no symptoms"}
    ]}
  ]
}
